Columns and labels:
neurons = experiment: Cell cytotoxicity toward neurons (Hoechst 33342 staining); type: cell-based; conditions: 2.5, 5 and 10 μM, n = 3
Source text: (§1) Bioactive compounds modulating proliferation and differentiation of neural stem cells are required as chemical probes to study about mechanism of neural development or lead compounds for regenerative medicine. In order to evaluate neural differentiation-modulating activities of kakeromamide A and its analogs, we elected to perform the biological tests using the same procedure that we reported in the isolation paper (Nakamura et al., [2018]). Neural stem cells were obtained following the procedure (Nakayama and Inoue, [2006]; Iwata et al., [2016]) with modification. 2.5, 5, and 10 μM of kakeromamide A or its respective derivative was added to astrocytes or neurons. The cell cytotoxicity of kakeromamide A and its analogs toward astrocytes or neurons was carried out using Hoechst 33342 staining (Figure 7).
(§2) Figure 7 Cytotoxicity of Kakeromamide A and Its Analogs. (A) Percentages of cell numbers calculated by Hoechst 33342 positive cells, compared to that of control, in evaluating effects of kakeromamide A and its analogs for astrocytes (n = 3, means ± S.D., *p < 0.05). (B) Percentages of cell numbers calculated by Hoechst 33342 positive cells, compared to that of control, in evaluating effects of kakeromamide A and its analogs for neurons (n = 3, means ± S.D., *p < 0.05).

Hela cells = conditions: preliminary biological tests of the isolated natural product; ref Nakamura et al., 2018; read-out: cytotoxicity IC50 against Hela cells; cited from earlier work
Source text: (§3) Marine cyanobacteria have been playing a pivotal role in producing structurally diversified and biologically intriguing peptides (Luesch et al., [2001]; Guzman-Martinez et al., [2007]; Zainuddin et al., [2007]). In 2018, we reported the isolation of a novel cyclopeptide, kakeromamide A (Figure 1), from the marine cyanobacterium Moorea bouillonii collected near Japan (Nakamura et al., [2018]). […] To the best of our knowledge, this is the first example of marine cyclopeptide t ...

neural stem cells (NSCs) [1] = conditions: isolated natural product; ref Nakamura et al., 2018; cited from earlier work
Source text: as §3

neural stem cells (NSCs) [2] = experiment: NSC differentiation assay, neuronal differentiation (NeuO staining); type: cell-based; conditions: 2.5, 5 and 10 μM, 72 hours in differentiation medium, Hoechst 33342 nuclei, n = 3
Experimental: (§4) Next, kakeromamide A or its respective derivative was exposed at three concentrations (2.5, 5, and 10 μM) during differentiation of neural stem cells (NSCs). The effects of kakeromamide A and its analogs on the neural differentiation into neurons or astrocytes were evaluated by using NeuO (Er et al., [2015]) a fluorescent probe which could selectively stain neurons, or immunostaining of an astrocyte marker GFAP (glial fibrillary acidic protein), respectively. The nuclei were stained by using Hoechst 33342 followed by the microscopic analysis. Their activities were determined by calculating a ratio NeuO or GFAP positive cells to whole cells and comparing with that of the control. […] Furthermore, the astrocytic or neuronal differentiation were promoted or inhibited, respectively, by treatment with four analogs of compound 1.
(§5) V. Procedures for Biological Tests:
(§6) Induction of neural stem cells in vitro: Neural stem cells (NSCs) were obtained following the procedure (Iwata, et al., 2016; Nakayama, et al., 2006) with modification. Embryoid bodies (EBs) were induced by hanging drop method for 72 hours using 7,500 cells per 20 µL of ESCs culturing medium without LIF. Then the EBs were cultured in non-adhesive bacterial dishes in Neuron Culture Medium (Sumitomo Bakelite, Tokyo, Japan) supplemented with 20 ng/mL rhEGF (R&D Systems, Minneapolis, MN, USA) and 20 ng/mL rhFGF-2 (R&D Systems). […]

neural stem cells (NSCs) [3] = experiment: NSC differentiation assay, astrocytic differentiation (GFAP immunostaining); type: cell-based; conditions: 2.5, 5 and 10 μM; 72 hours in differentiation medium; anti-GFAP immunostaining, Hoechst 33342 nuclei; n = 3
Experimental: as §4, §5, §6

astrocytes = experiment: Cell cytotoxicity toward astrocytes (Hoechst 33342 staining); type: cell-based; conditions: 2.5, 5 and 10 μM, n = 3
Source text: as §1, §2

Q: What does the source list for Kakeromamide A?
A: cytotoxicity toward neurons (cell number by Hoechst 33342 positive cells vs control) (neurons): No significant cytotoxicity; IC50 (Hela cells): 10 µM; concentration inducing neural stem cells differentiation into astrocytes (neural stem cells (NSCs) [1]): 2.5 to 10 µM; neuronal differentiation of NSCs (ratio of NeuO positive cells to whole cells vs control) (neural stem cells (NSCs) [2]): inhibiting neuronal differentiation of NSCs; astrocytic differentiation of NSCs (ratio of GFAP positive cells to whole cells vs control) (neural stem cells (NSCs) [3]): promoting differentiation of NSCs into astrocytes; cytotoxicity toward astrocytes (cell number by Hoechst 33342 positive cells vs control) (astrocytes): No significant cytotoxicity

Source: publication PMC7237762, “Total Synthesis and Biological Evaluation of Kakeromamide A and Its Analogues” (Frontiers in Chemistry, 2020)
